Measurements from patent publication US20260250337A1, “HYBRID ANTIMICROBIAL PEPTIDES” (UNIVERSIDADE FEDERAL DO ABC, priority 2023, published 2026).
No end group written: not given here.

How the values were obtained:
[1] = tested on: S. epidermidis ATCC 12228; assay: Liquid growth inhibition assay, MIC; assay type: cell-based; conditions: 37° C., 18 h
[2] = tested on: human erythrocytes; assay: Hemolytic activity assay; assay type: cell-based; conditions: human erythrocytes, 1 h
Summary of the method: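 Fresh heparinised human erythrocytes incubated with peptide at 0.1 to 100 μmol L−1 for 1 h at room temperature; supernatant absorbance at 405 nm after centrifugation. MHC taken as highest concentration with 100% erythrocytes viable; SDS and PBS as positive and negative controls, three biological repeats.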

[3] = tested on: C. tropicalis IOC 4560; assay: Liquid growth inhibition assay, MIC (antifungal); assay type: cell-based, Candida tropicalis; conditions: 37° C., 24 h
Summary of the method: (§1)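 Peptides were tested in two-fold serial dilutions (0.09-50 μmol L^−1) in Peptone Broth for bacteria or Potato Dextrose Broth for fungi. Plates were incubated at 37° C. for 18 h (bacteria) or 24 h (fungi), and growth was read as absorbance at 595 nm.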

[4] = tested on: E. coli AIC222; assay: Broth microdilution MIC, ESKAPE pathogens; assay type: cell-based; conditions: LB, 37° C., 24 h
Protocol: (§2) Method. The minimal inhibitory concentration (MIC) against the ESKAPE pathogens was determined using the broth microdilution method^81, 82 in Luria-Bertani (LB) medium. The MIC value was defined as the lowest concentration of peptide at which no microbial growth was observed. A. baumannii ATCC19606, E. coli ATCC11775, E. coli AIC221, E. coli AIC222, K. pneumoniae ATCC13883, S. aureus ATCC12600 P. aeruginosa PAO1, and P. aeruginosa PA14 were incubated on agar plates, and after 24 h, three isolated colonies were inoculated to 5 mL of Luria-Bertani (LB) broth and maintained at 37° C. overnight with shaking. Peptides were then added to 96-well polystyrene microtiter plates at concentrations ranging from 0 to 128 μmol L^−1, and 5×10^5 CFU mL^−1 of each bacterium was inoculated in each well. The plates were incubated at 37° C. for 24 h. Bacterial growth was measured using a microplate reader at 610 nm. Three independent replicates were performed.

[5] = tested on: K. pneumoniae ATCC13883; assay: Broth microdilution MIC, ESKAPE pathogens; assay type: cell-based; conditions: LB, 37° C., 24 h
Protocol: as §2

[6] = tested on: S. aureus ATCC12600; assay: Broth microdilution MIC, ESKAPE pathogens; assay type: cell-based; conditions: LB, 37° C., 24 h
Protocol: as §2

[7] = tested on: E. coli AIC221; assay: Broth microdilution MIC, ESKAPE pathogens; assay type: cell-based; conditions: LB, 37° C., 24 h
Protocol: as §2

[8] = tested on: P. aeruginosa PA14; assay: Broth microdilution MIC, ESKAPE pathogens; assay type: cell-based; conditions: LB, 37° C., 24 h
Protocol: as §2

[9] = tested on: P. aeruginosa PAO1; assay: Broth microdilution MIC, ESKAPE pathogens; assay type: cell-based; conditions: LB, 37° C., 24 h
Protocol: as §2

[10] = tested on: E. coli ATCC11775; assay: Broth microdilution MIC, ESKAPE pathogens; assay type: cell-based; conditions: LB, 37° C., 24 h
Protocol: as §2

[11] = tested on: A. baumannii ATCC19606; assay: Broth microdilution MIC, ESKAPE pathogens; assay type: cell-based; conditions: LB, 37° C., 24 h
Protocol: as §2

[12] = tested on: A. baumannii ATCC19606; assay: NPN uptake assay, outer membrane permeabilization; assay type: cell-based; conditions: peptides at their MIC
Protocol: Method. Membrane permeabilization was assessed for two of the naturally occurring peptides (VmCT1 and temporin A) and two of the hybrids [VmCT1-temporin A (VT) and temporin A-VmCT1 (TV)] at their MIC by using the N-phenyl-1-naphthylamine (NPN) uptake assay as previously described^104, 105. Briefly, A. baumannii ATCC19606 cells were grown to an optical density at 600 nm (OD600) of 0.4, centrifuged (10,000 rpm at 4° C. to 10 minutes), washed, and resuspended in buffer (5 mmol L^−1 HEPES, 5 mmol L^−1 glucose, pH 7.4). Four μL of NPN solution (0.5 mmol L^−1; working concentration of 10 μmol L^−1, after dilutions) was added to 100 μL of the bacterial solution in 96-well plates. The background fluorescence was then determined at λex=350 nm and […]. The peptides resuspended in water (100 μL at a concentration of 1.2 μmol L^−1) were added to each 96-well plate. The fluorescence was determined as a function of time until no further increase in fluorescence was observed (45 min).

[13] = tested on: S. marcescens ATCC 4112; assay: Liquid growth inhibition assay, MIC; assay type: cell-based, Serratia marcescens; conditions: 37° C., 18 h
Summary of the method: as §1

[14] = tested on: M. luteus A270; assay: Liquid growth inhibition assay, MIC; assay type: cell-based, Micrococcus luteus; conditions: 37° C., 18 h
Summary of the method: as §1

[15] = Circular dichroism, helical fraction (Lifson-Roig); assay type: physicochemical; conditions: peptide 50 μmol L^−1
Summary of the method: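 Far-UV CD spectra (195–260 nm) of peptide at 50 μmol L⁻¹ in water, TFE/water 3:2, 10 mmol L⁻¹ PBS pH 7.4, 20 mmol L⁻¹ SDS, and 10 mmol L⁻¹ POPC, POPC:DOPE 3:1 or POPC:POPG 3:1 vesicles. Helical fraction was estimated by Lifson-Roig analysis.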

[16] = tested on: C. albicans MDM8; assay: Liquid growth inhibition assay, MIC (antifungal); assay type: cell-based, Candida albicans; conditions: 37° C., 24 h
Summary of the method: as §1

[17] = tested on: B. megaterium ATCC 10778; assay: Liquid growth inhibition assay, MIC; assay type: cell-based, Bacillus megaterium; conditions: 37° C., 18 h
Summary of the method: as §1

FLPLLWRVASGVF-NH2 [VT, Phe-Leu-Pro-Leu-Leu-Trp-Arg-Val-Ala-Ser-Gly-Val-Phe]
MIC S. epidermidis ATCC 12228 [1]: >50 µM
Hemolytic activity, concentration of peptide needed to kill 10% of red blood cells [2]: 0.2 µmol/L
MHC ([2]; room temperature, concentration with approximately 0% of hemolytic activity): 0.2 µmol/L
MIC C. tropicalis IOC 4560 [3]: 25 µM
MIC E. coli AIC222 [4]: 32 µM
MIC K. pneumoniae ATCC13883 [5]: 128 µM
MIC S. aureus ATCC12600 [6]: 4 µM
MIC E. coli AIC221 [7]: 128 µM
MIC P. aeruginosa PA14 [8]: 128 µM
MIC P. aeruginosa PAO1 [9]: 128 µM
MIC E. coli ATCC11775 [10]: 64 µM
MIC A. baumannii ATCC19606 [11]: 16 µM
outer membrane permeabilization, NPN fluorescence [12]: did not lead to increased fluorescence compared to the control
MIC S. marcescens ATCC 4112 [13]: 12.5 µM
MIC M. luteus A270 [14]: 3.1 µM
Helical fraction (fH) PBS ([15]; PBS 10 mmol L^−1, pH 7.4): 0.18
Helical fraction (fH) POPC ([15]; POPC 10 mmol L^−1): 0.45
Helical fraction (fH) POPC:DOPE ([15]; POPC:DOPE 3:1, mol:mol, 10 mmol L^−1): 0.42
Helical fraction (fH) POPC:POPG ([15]; POPC:POPG 3:1, mol:mol, 10 mmol L^−1): 1.00
Helical fraction (fH) SDS ([15]; SDS 20 mmol L^−1 in water): 0.82
Helical fraction (fH) TFE/Water ([15]; TFE in water (3:2, v:v)): 1.00
Helical fraction (fH) Water ([15]; water): 0.21
MIC C. albicans MDM8 [16]: 12.5 µM
MIC B. megaterium ATCC 10778 [17]: 6.3 µM
